Experimental data taken from US20230372367A1 (GW Research Limited, priority 2020, published 2023).
Entries after “also recorded” stand apart in the source; their conditions may differ.

Tests used:
Assay type in all cases: in vivo, human
[1] = test system: absence seizures in patients diagnosed with encephalocele; assay: Open label, expanded-access program: absence seizure frequency; settings: for Seizure frequency, Absence: baseline 6.8
Method: (§1) Subjects were required to be on one or more AEDs at stable doses for a minimum of two weeks prior to baseline and to have stable vagus nerve stimulation (VNS) settings and ketogenic diet ratios for a minimum of four weeks prior to baseline.
(§2) A maximum dose of 50 mg/kg/day could be utilised for patients who were tolerating the medication but had not achieved seizure control; these patients had further weekly titration by 5 mg/kg/day.
(§3) Modifications were made to concomitant AEDs as per clinical indication.
(§4) Seizure frequency, intensity, and duration were recorded by caregivers in a diary during a baseline period of at least 28 days. Changes in seizure frequency relative to baseline were calculated after at least 2 weeks and at defined timepoints of treatment.
(§5) Patients may be defined as responders if they had more than 50% reduction in seizure frequency compared to baseline. The percent change in seizure frequency was calculated as follows: […]
(§6) The percent change of seizure frequency may be calculated for any time interval where seizure number has been recorded. For the purpose of this example the percent change of seizure frequency for the end of the treatment period was calculated as follows: […]

[2] = test system: focal seizures with impairment in patients diagnosed with encephalocele; assay: Open label, expanded-access program: frequency of focal seizures with impairment; parameters: Seizure frequency, Focal with impairment: unit not given here
Method: as §1, §3, §4, §5, §6

[3] = test system: seizures associated with encephalocele; assay: Open label, expanded-access program: seizures overall; settings: two patients
Method: as §1, §2, §3, §4, §5, §6

[4] = test system: focal seizures with secondary generalisation in patients diagnosed with encephalocele; assay: Open label, expanded-access program: frequency of focal seizures with secondary generalisation; settings: Patient 2, baseline 85.0
Method: as §1, §2, §3, §4, §5, §6

Q: `C=C(C)[C@@H]1CCC(C)=C[C@H]1c1c(O)cc(CCCCC)cc1O` [CBD, cannabidiol] was tested. Which “Seizure frequency, Absence” value ([1]; Patient 1, 2 weeks, CBD 15.0 mg/kg/day) did it give?
A: Its value is 6.0.

Q: And the “Seizure frequency, Absence” value ([1]; Patient 1, 4 weeks, CBD 25.0 mg/kg/day)?
A: Its value is 8.0.

Q: And the “Seizure frequency, Absence” value ([1]; Patient 1, 8 weeks, CBD 30.0 mg/kg/day)?
A: The value was 0.

Q: What about the “Seizure frequency, Absence” value ([1]; Patient 1, 12 weeks, CBD 25.0 mg/kg/day) of the same compound?
A: Its value is 0.

Q: And the “Seizure frequency, Absence” value ([1]; Patient 1, 24 weeks, CBD 15.0 mg/kg/day)?
A: Its value is 1.6.

Q: What about the “Seizure frequency, Absence” value ([1]; Patient 1, 36 weeks, CBD 10.0 mg/kg/day) of the same compound?
A: Its value is 0.

Q: What about the “Seizure frequency, Absence” value ([1]; Patient 1, 48 weeks, CBD 10.0 mg/kg/day) of the same compound?
A: Its value is 0.

Q: What about the “Seizure frequency, Absence” value ([1]; Patient 1, 60 weeks, CBD 15.0 mg/kg/day) of the same compound?
A: The value was 0.

Q: What about the “Seizure frequency, Absence” value ([1]; Patient 1, 84 weeks, CBD 15.0 mg/kg/day) of the same compound?
A: The value was 0.

Q: And the “seizure freedom from absence seizures” value ([1]; Patient 1, after 36 weeks of treatment)?
A: The value was “completely seizure free from absence seizures”.

Q: What about the “reduction in absence seizures over the treatment period” value ([1]; Patient 1, treated for 144 weeks, relative to baseline) of the same compound?
A: Its value is 100%.

Q: And the “effect on frequency of absence seizures (in words)” value ([1]; patients with encephalocele)?
A: The value was “effective in reducing the frequency; also recorded: significant reduction”.

Q: What about the “Seizure frequency, Focal with impairment” value ([2]; Patient 1, 4 weeks, CBD 25.0 mg/kg/day, baseline 92.5) of the same compound?
A: The value was 104.0.

Q: What about the “Seizure frequency, Focal with impairment” value ([2]; Patient 1, 8 weeks, CBD 30.0 mg/kg/day, baseline 92.5) of the same compound?
A: The value was 92.8.

Q: What about the “Seizure frequency, Focal with impairment” value ([2]; Patient 1, 12 weeks, CBD 25.0 mg/kg/day, baseline 92.5) of the same compound?
A: The value was 98.0.

Q: And the “Seizure frequency, Focal with impairment” value ([2]; Patient 1, 24 weeks, CBD 15.0 mg/kg/day, baseline 92.5)?
A: Its value is 93.1.

Q: What about the “Seizure frequency, Focal with impairment” value ([2]; Patient 1, 60 weeks, CBD 15.0 mg/kg/day, baseline 92.5) of the same compound?
A: The value was 95.0.

Q: And the “Seizure frequency, Focal with impairment” value ([2]; Patient 2, 2 weeks, CBD 10.0 mg/kg/day, baseline 6.0)?
A: The value was 10.0.

Q: What about the “Seizure frequency, Focal with impairment” value ([2]; Patient 2, 4 weeks, CBD 20.0 mg/kg/day, baseline 6.0) of the same compound?
A: Its value is 6.8.

Q: What about the “Seizure frequency, Focal with impairment” value ([2]; Patient 2, 8 weeks, CBD 25.0 mg/kg/day, baseline 6.0) of the same compound?
A: The value was 13.5.

Q: What about the “Seizure frequency, Focal with impairment” value ([2]; Patient 2, 12 weeks, CBD 25.0 mg/kg/day, baseline 6.0) of the same compound?
A: Its value is 25.1.

Q: And the “Seizure frequency, Focal with impairment” value ([2]; Patient 2, 16 weeks, CBD 25.0 mg/kg/day, baseline 6.0)?
A: The value was 14.6.

Q: And the “Seizure frequency, Focal with impairment” value ([2]; Patient 2, 24 weeks, CBD 25.0 mg/kg/day, baseline 6.0)?
A: The value was 12.9.

Q: And the “Seizure frequency, Focal with impairment” value ([2]; Patient 2, 48 weeks, CBD 46.0 mg/kg/day, baseline 6.0)?
A: Its value is 14.5.

Q: What about the “Seizure frequency, Focal with impairment” value ([2]; Patient 2, 60 weeks, CBD 24.0 mg/kg/day, baseline 6.0) of the same compound?
A: The value was 18.1.

Q: What about the “Seizure frequency, Focal with impairment” value ([2]; Patient 2, 72 weeks, CBD 25.0 mg/kg/day, baseline 6.0) of the same compound?
A: The value was 13.4.

Q: What about the “Seizure frequency, Focal with impairment” value ([2]; Patient 2, 84 weeks, CBD 25.0 mg/kg/day, baseline 6.0) of the same compound?
A: The value was 9.8.

Q: What about the “Seizure frequency, Focal with impairment” value ([2]; Patient 2, 96 weeks, CBD 25.0 mg/kg/day, baseline 6.0) of the same compound?
A: Its value is 22.9.

Q: And the “Seizure frequency, Focal with impairment” value ([2]; Patient 2, 108 weeks, CBD 20.0 mg/kg/day, baseline 6.0)?
A: The value was 9.4.

Q: What about the “Seizure frequency, Focal with impairment” value ([2]; Patient 2, 120 weeks, CBD 20.0 mg/kg/day, baseline 6.0) of the same compound?
A: Its value is 11.3.

Q: What about the “Seizure frequency, Focal with impairment” value ([2]; Patient 2, 144 weeks, CBD 22.0 mg/kg/day, baseline 6.0) of the same compound?
A: Its value is 4.8.

Q: What about the “reduction in focal seizures with impairment over the treatment period” value ([2]; Patient 2, treated for 144 weeks, relative to baseline) of the same compound?
A: Its value is 20%.

Q: And the “effect on frequency of focal seizures with impairment (in words)” value ([2]; patients with encephalocele)?
A: Its value is “effective in reducing the frequency; also recorded: significant reduction”.

Q: What about the “effect on number of seizures associated with encephalocele (in words)” value [3] of the same compound?
A: The value was “significantly reduce the number of seizures”.

Q: And the “reductions in seizures over period of treatment” value ([3]; absence and focal seizures with impairment, relative to baseline)?
A: Its value is 20-100%.

Q: What about the “Seizure frequency, Focal with secondary generalisation” value ([4]; 2 weeks, CBD 10.0 mg/kg/day) of the same compound?
A: Its value is 90.0.

Q: And the “Seizure frequency, Focal with secondary generalisation” value ([4]; 4 weeks, CBD 20.0 mg/kg/day)?
A: The value was 28.8.

Q: And the “Seizure frequency, Focal with secondary generalisation” value ([4]; 8 weeks, CBD 25.0 mg/kg/day)?
A: The value was 90.2.

Q: And the “Seizure frequency, Focal with secondary generalisation” value ([4]; 12 weeks, CBD 25.0 mg/kg/day)?
A: Its value is 197.9.

Q: What about the “Seizure frequency, Focal with secondary generalisation” value ([4]; 16 weeks, CBD 25.0 mg/kg/day) of the same compound?
A: Its value is 212.8.

Q: What about the “Seizure frequency, Focal with secondary generalisation” value ([4]; 24 weeks, CBD 25.0 mg/kg/day) of the same compound?
A: The value was 145.6.

Q: And the “Seizure frequency, Focal with secondary generalisation” value ([4]; 48 weeks, CBD 46.0 mg/kg/day)?
A: The value was 143.1.

Q: And the “Seizure frequency, Focal with secondary generalisation” value ([4]; 60 weeks, CBD 24.0 mg/kg/day)?
A: The value was 141.0.

Q: And the “Seizure frequency, Focal with secondary generalisation” value ([4]; 72 weeks, CBD 25.0 mg/kg/day)?
A: Its value is 148.6.

Q: What about the “Seizure frequency, Focal with secondary generalisation” value ([4]; 84 weeks, CBD 25.0 mg/kg/day) of the same compound?
A: The value was 143.1.

Q: And the “Seizure frequency, Focal with secondary generalisation” value ([4]; 96 weeks, CBD 25.0 mg/kg/day)?
A: Its value is 117.8.

Q: What about the “Seizure frequency, Focal with secondary generalisation” value ([4]; 108 weeks, CBD 20.0 mg/kg/day) of the same compound?
A: Its value is 119.1.

Q: What about the “Seizure frequency, Focal with secondary generalisation” value ([4]; 120 weeks, CBD 20.0 mg/kg/day) of the same compound?
A: Its value is 146.6.

Q: What about the “Seizure frequency, Focal with secondary generalisation” value ([4]; 144 weeks, CBD 22.0 mg/kg/day) of the same compound?
A: Its value is 91.1.
